Data as given in US20230241226A1, “COMPOUNDS FOR TARGETED DEGRADATION OF CARRIER PROTEINS AND USES THEREOF” (CeMM - Forschungszentrum für Molekulare Medizin GmbH, priority 2019, published 2023).

How the values were obtained:
dTAG-HA SLC33A1 = target: T1, dTAG-HA SLC33A1 (Homo sapiens, UniProt O00400+Q96SW2); experiment: Targeted degradation of dTAG-tagged SLC33A1 (western blot); assay type: cell-based; conditions: HAP1, 0.5 µM
T1 construct: expressed in transfected cells
Description: (§1) (C)HAP1 cells expressing dTAG-HA SLC1A5, 2A3, 30A9, 35B2, MTCH2, and 33A1 were treated for 24 hours with 0.5 µM of dTAG7 or dTAG13, as indicated. HAP1 cells expressing dTAG-HA SLC2A1 and 16A1 were treated for 24 hrs with 0.5 µM of dTAG7. HAP1 cell lines expressing dTAG-HA SLC39A7, dTAG-HA SLC4A4, and SLC7A3-dTAG-HA were treated for 48 hrs with 0.5 µM of dTAG13.
(§2) SLC1A5, SLC2A1, SLC2A3, SLC16A1, SLC38A1, SLC38A2 were obtained as gateway-compatible pENTR/pDONR vectors from the Harvard PlasmID Repository. SLC39A7 was obtained from Dharmacon, GE Healthcare. The following vectors were synthesized by Genescript: SLC4A4, SLC7A3, SLC38A9, SLC25A1, SLC9A1, SLC9A2, SLC9A3, SLC9A4, SLC9A5, SLC9A6, SLC9A7, SLC9A8, and SLC9B2. […]
(§3) For immunoblotting, whole cell extracts were prepared using RIPA lysis buffer (25 mM Tris/HCl pH 7.6, 150 mM NaCl, 1% NP-40, 1% sodium deoxycholate, 0.1% SDS, EDTA-free protease inhibitor (Roche) and phosphatase inhibitors 2+3 (Sigma- Aldrich)). […] Protein extracts were quantified and normalized using the BCA assay (Thermo Scientific). […]
(§4) SLCs were ectopically expressed as fusions to a mutated FKBP domain, also known as the dTAG system. […]

dTAG-HA SLC35B2 = target: T2, dTAG-HA SLC35B2 (Homo sapiens, UniProt Q8TB61+Q96SW2); experiment: Targeted degradation of dTAG-tagged SLC35B2 (western blot); assay type: cell-based; conditions: HAP1, 0.5 µM, 24, 48 or 72 hours
T2 construct: expressed in transfected cells
Description: as §1, §2, §3, §4

Strep/HA SLC9A3 = target: T3, Strep/HA SLC9A3 (Homo sapiens, UniProt P48764); experiment: Selectivity across SLC9 family: degradation of exogenous Strep/HA SLC9A3; assay type: cell-based; conditions: HAP1; 250 or 750 nM; 16 hours
T3 construct: expressed in transfected cells; host or cells: HAP1 (lentiviral, pRRL Strep-HA; cDNA synthesized by Genescript)
Description: (E) Selectivity of d9A1-2 was tested across HAP1 cell lines expressing Strep/HASLC9A1, 9A4, 9A5, 9A8, 9A2, 9B2, 9A6, 9A9, and 9A3. Cells were treated with varying concentrations of d9A1-2 for 16 hours, after which degradation of the exogenous SLCs was monitored.
SLC1A5, SLC2A1, SLC2A3, SLC16A1, SLC38A1, SLC38A2 were obtained as gateway-compatible pENTR/pDONR vectors from the Harvard PlasmID Repository. SLC39A7 was obtained from Dharmacon, GE Healthcare. The following vectors were synthesized by Genescript: SLC4A4, SLC7A3, SLC38A9, SLC25A1, SLC9A1, SLC9A2, SLC9A3, SLC9A4, SLC9A5, SLC9A6, SLC9A7, SLC9A8, and SLC9B2. SLC30A9, SLC33A1, SLC35B2, SLC25A26, and MTCH2 were a gift from the RESOLUTE consortium. cDNAs were transferred into gateway-compatible lentiviral expression vectors: pLX305 dTAG vectors (Addgene #91797/8) or pRRL Strep-HA (described previously43, EF1a promotor driven expression) using LR recombination (ThermoFisher Scientific). […]
as §3

[1] = test system: Peripheral blood mononuclear cells (PBMCs); experiment: Cellular viability assay (CellTiter-Glo), dose curve, FIG. 9; assay type: cell-based, human; conditions: PBMCs of healthy donors and patients (AML, multiple myeloma, B cell lymphoma, Hodgkin's lymphoma, CLL), 72 hours
Description: Relative viability of Peripheral blood mononuclear cells (PBMCs) after treatment with the d9A1-2 molecule PBMCs were isolated from healthy donors and patients with acute myeloid leukemia, multiple myeloma, B cell lymphoma and Hodgkin’s lymphoma, chronic lymphocytic leukeumia and treated with a dose curve of d9A1-2. Viability was assayed using the CellTiter-Glo assay, 72 hours post treatment.
Peripheral blood mononuclear cells (PBMCs) were isolated using Lymphoprep (Stem Cell Technologies) from healthy donors and patients with acute myeloid leukemia, multiple myeloma, B cell lymphoma, Hodgkin’s lymphoma, chronic lymphocytic leukeumia. For comparison of different samples, compounds were transferred on black 384-well plates using an acoustic liquid handler (Echo, Labcyte). Cells were seeded in these plates at densities of 20,000 cells per well in RPMI media (Gibco), supplemented with 10% fetal calf serum (Gibco). Viability was measured after 72 hours using the CellTiter-Glo assay (Promega) on a plate reader (SpectraMax i3x, Molecular Probes). All measurements were done in technical quadruplicates. Toxicity achieved by treatment with d9A1-2 was normalized to the reference controls. Dose response fitting curves were obtained and plotted using GraphPad Prism V8. Data is presented as mean +/- SD.

T3 sequence (P48764 26-834): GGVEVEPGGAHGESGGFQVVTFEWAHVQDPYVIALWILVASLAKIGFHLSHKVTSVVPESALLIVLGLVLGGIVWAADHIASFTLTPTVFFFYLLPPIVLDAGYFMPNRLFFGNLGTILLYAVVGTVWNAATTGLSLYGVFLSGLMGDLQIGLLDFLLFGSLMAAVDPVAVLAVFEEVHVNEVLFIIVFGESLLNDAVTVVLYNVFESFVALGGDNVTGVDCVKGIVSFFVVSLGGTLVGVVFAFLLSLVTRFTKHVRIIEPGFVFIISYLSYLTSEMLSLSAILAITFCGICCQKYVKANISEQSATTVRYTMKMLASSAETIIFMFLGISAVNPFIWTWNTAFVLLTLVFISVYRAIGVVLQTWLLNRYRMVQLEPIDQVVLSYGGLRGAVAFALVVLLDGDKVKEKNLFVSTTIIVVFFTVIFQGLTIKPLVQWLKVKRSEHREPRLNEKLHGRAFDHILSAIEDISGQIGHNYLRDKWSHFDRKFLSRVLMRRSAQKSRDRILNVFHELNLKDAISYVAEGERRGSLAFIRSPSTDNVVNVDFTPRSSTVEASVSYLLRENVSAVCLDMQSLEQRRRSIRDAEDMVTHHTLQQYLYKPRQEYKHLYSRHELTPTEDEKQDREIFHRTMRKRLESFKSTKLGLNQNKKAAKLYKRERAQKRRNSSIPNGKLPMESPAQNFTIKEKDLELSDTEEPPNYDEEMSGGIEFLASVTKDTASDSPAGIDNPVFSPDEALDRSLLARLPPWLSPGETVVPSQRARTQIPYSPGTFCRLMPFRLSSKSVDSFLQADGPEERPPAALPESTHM
T2 sequence (Q8TB61 with tags, fused parts or gaps): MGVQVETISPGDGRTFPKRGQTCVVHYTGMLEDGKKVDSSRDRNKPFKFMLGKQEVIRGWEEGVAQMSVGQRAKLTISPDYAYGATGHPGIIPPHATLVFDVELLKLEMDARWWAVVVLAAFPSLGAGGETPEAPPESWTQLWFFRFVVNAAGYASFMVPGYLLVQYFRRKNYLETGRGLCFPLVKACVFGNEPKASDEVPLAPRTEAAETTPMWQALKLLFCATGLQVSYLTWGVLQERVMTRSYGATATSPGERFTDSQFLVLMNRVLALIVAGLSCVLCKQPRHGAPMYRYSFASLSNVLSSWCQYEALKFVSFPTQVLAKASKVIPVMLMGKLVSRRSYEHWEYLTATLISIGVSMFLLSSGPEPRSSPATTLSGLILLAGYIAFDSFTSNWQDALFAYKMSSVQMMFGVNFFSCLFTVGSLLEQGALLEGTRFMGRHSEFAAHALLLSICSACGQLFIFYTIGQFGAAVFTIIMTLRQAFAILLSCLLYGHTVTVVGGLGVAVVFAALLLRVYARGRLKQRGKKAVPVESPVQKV
T2 sequence (Q96SW2 whole entry): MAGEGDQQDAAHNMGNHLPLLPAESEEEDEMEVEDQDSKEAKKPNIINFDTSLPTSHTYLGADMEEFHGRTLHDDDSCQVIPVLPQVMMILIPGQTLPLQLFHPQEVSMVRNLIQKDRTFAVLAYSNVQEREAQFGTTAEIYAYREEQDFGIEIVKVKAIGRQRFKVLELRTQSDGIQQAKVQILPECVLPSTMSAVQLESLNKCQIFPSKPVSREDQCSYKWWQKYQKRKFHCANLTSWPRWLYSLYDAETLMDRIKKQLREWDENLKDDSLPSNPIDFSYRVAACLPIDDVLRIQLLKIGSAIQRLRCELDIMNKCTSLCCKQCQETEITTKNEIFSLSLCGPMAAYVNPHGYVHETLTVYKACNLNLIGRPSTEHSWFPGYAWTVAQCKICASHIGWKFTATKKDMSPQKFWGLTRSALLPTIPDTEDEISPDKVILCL
T2 sequence (Q16531 whole entry partner): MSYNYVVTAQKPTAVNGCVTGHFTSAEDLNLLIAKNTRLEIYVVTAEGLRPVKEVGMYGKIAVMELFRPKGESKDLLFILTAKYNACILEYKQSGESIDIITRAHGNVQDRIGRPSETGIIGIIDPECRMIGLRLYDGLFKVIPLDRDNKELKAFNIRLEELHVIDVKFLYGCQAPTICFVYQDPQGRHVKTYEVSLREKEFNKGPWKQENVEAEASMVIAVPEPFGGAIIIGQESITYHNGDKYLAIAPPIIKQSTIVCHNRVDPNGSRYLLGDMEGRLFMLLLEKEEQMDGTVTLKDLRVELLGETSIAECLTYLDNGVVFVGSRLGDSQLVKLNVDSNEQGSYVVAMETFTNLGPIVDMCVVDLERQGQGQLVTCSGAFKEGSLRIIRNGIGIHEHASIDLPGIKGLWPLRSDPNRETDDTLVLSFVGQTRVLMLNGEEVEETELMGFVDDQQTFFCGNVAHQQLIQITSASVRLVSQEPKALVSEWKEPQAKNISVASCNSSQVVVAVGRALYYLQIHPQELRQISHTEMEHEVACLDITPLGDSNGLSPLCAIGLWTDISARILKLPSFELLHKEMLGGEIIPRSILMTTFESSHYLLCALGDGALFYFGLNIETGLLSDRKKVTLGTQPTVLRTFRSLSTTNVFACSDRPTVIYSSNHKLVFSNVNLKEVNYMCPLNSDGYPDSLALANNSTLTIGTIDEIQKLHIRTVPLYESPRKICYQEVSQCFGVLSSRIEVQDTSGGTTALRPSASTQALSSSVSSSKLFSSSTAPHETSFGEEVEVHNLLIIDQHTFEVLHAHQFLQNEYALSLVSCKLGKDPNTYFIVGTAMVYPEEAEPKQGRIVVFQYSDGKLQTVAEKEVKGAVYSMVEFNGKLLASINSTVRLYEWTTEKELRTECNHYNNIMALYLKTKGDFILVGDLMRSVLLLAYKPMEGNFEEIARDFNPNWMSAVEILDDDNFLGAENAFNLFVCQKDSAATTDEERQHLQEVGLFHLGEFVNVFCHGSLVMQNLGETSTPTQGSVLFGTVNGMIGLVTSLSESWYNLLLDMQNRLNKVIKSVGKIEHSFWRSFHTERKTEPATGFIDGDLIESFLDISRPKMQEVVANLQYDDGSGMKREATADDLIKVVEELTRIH
T1 sequence (O00400 with tags, fused parts or gaps): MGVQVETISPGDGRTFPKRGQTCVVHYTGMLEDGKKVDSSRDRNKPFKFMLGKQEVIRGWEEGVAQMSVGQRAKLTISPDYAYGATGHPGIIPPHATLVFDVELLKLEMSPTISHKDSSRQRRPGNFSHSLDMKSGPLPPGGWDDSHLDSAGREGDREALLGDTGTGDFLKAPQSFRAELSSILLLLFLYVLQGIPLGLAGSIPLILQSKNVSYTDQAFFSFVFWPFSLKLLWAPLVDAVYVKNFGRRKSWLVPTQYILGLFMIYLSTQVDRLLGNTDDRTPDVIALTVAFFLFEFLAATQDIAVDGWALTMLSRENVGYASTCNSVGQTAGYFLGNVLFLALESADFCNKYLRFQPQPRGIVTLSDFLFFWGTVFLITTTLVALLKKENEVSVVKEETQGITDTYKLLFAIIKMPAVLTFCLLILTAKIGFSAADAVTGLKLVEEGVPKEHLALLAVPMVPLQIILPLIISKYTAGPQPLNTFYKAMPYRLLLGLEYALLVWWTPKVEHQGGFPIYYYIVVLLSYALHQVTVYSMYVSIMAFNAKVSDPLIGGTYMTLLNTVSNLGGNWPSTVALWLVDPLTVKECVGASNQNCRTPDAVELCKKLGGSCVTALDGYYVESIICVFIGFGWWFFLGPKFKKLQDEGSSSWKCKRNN
T1 sequence (Q96SW2 whole entry): as the sequence (Q96SW2 whole entry) above
T1 sequence (Q16531 whole entry partner): as the sequence (Q16531 whole entry partner) above

| initiation of degradation (time course) (dTAG-HA SLC33A1) | reversibility of degradation of the target SLC (dTAG-HA SLC35B2) | abundance of exogenous SLC9A3 (Strep/HA SLC9A3) | SMILES | toxicity (relative viability) in patient versus healthy donor PBMCs [1] |
| --- | --- | --- | --- | --- |
| ≤ 6 h | reversible degradation |  | CC[C@H](C(=O)N1CCCC[C@H]1C(=O)O[C@H](CCc1ccc(OC)c(OC)c1)c1ccccc1OCC(=O)NCCCOCCOCCOCCCNC(=O)COc1cccc2c1C(=O)N(C1CCC(=O)NC1=O)C2=O)c1cc(OC)c(OC)c(OC)c1 (stereo partly shown) [dTAG7] |  |
|  |  | not significantly affected | Cc1cc(-c2ccc(C(=O)NCCOCCOCCOCCOCCNc3cccc4c3C(=O)N(C3CCC(=O)NC3=O)C4=O)cc2N2CCC(c3[nH]cnc3C)CC2)ccc1F (stereo not shown) [d9A1-2] | more toxic in patient samples, than in healthy donor samples |
